Source: patent publication EP0501375A1 (priority 1991, dated 1992)
*1 amine or outer side, *2 acyl side, *3 side chain or, on linkers, in order; H or OH if unused. Where a SMILES comes first, the peptide text is derived from it. CO = O=C([*:1])[*:2]

Experiments:
alkaline protease K-16 [1] = target: T1, alkaline protease K-16 (Shouchella clausii, UniProt Q99405); assay: Effects of metal ions on protease activity; format: biochemical, Bacillus sp. KSM-K16; conditions: metal salt 1 mM; for Residual Activity: pH 9.5, 30°C for 20 minutes, relative to no metal salt; for effect on activity of the alkaline protease K-16 (in words): 30°C for 20 minutes
Method: A 1 ml portion of 50 mM boric acid-NaOH buffer (pH 10) containing 1% casein was mixed with 0.1 ml of enzyme solution, and the mixture was incubated at 40°C for 10 minutes. The reaction was stopped by adding 2 ml of a solution containing 0.123 M trichloroacetic acid, 0.246 M sodium acetate and 0.369 M acetic acid. After allowing to stand at 30°C for 20 minutes, the resulting mixture was filtered through a filter paper (manufactured by Whatman; No. 2), and the filtrate was checked for its contents of proteolytic products in accordance with the modified Folin-Lowry method. One unit of activity (1 P.U.) was defined as the amount of enzyme which produces 1 mmole of tyrosine per minute.
Effects of various metal ions on the activity of the alkaline protease K-16 were examined. A 20 mM boric acid-NaOH buffer (pH 9.5) solution containing 1 mM of a metal salt was mixed with 3.9 x 10⁻³ P.U. of the alkaline protease K-16, and the mixture was maintained at 30°C for 20 minutes. Thereafter, the thus treated mixture was diluted with 50 mM boric acid-NaOH buffer (pH 10.0) by a factor of 5 to measure residual activity which was then calculated as relative value based on the activity measured in the same manner in the absence of metal salts. […] Also, as is evident from the results described in the foregoing items (5) and (6), thermal stability of this enzyme is improved in the presence of Ca²⁺ TABLE 3

alkaline protease K-16 [2] = target: T1, alkaline protease K-16; assay: biochemical; format: biochemical, Bacillus sp. KSM-K16

T1 sequence (Q99405 112-380): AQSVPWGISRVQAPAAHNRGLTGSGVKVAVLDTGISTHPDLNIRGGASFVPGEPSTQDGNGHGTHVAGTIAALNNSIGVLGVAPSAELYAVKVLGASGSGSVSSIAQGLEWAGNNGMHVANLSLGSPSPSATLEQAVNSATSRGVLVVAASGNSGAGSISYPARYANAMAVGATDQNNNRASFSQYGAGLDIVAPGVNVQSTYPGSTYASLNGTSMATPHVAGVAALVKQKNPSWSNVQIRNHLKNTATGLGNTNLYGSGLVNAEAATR

| SMILES | Residual Activity (alkaline protease K-16 [1]) [%] | other results |
| --- | --- | --- |
| O=[N+]([O-])[O-].[Ag+] [AgNO₃] | 86 | – |
| CC(C)[C@H](NC(=O)[C@H](CCCNC(=N)N)NC(=O)N[C@@H](Cc1ccccc1)C(=O)O)C(=O)N[C@H](C=O)CCCNC(=N)N [Antipain] ({Phe-CO}-Arg-Val-Arg-aldehyde) | – | Residual Activity (alkaline protease K-16 [2]; pH 7): 108% |
| [Ca+2].[Cl-].[Cl-] [CaCl₂] | 103 | – |
| CC(C)C[C@H](NC(=O)[C@@H](NC(=O)N[C@@H](Cc1ccccc1)C(=O)O)[C@@H]1CCN=C(N)N1)C(=O)N[C@H](C=O)Cc1ccccc1 [Chymostatin] | – | Residual Activity (alkaline protease K-16 [2]; pH 7): 34%; effect on activity of the alkaline protease K-16 (in words) (alkaline protease K-16 [2]; pH 7): inhibited |
| [Cl-].[Cl-].[Co+2] [CoCl₂] | 103 | – |
| O=S(=O)([O-])[O-].[Cu+2] [CuSO₄] | 73 | effect on activity of the alkaline protease K-16 (in words) (alkaline protease K-16 [1]): inhibited |
| O=C(O)CN(CCN(CC(=O)O)CC(=O)O)CC(=O)O [EDTA] | – | remaining activity at 5000 µM (alkaline protease K-16 [2]; pH 7, read-out: Residual Activity): 107% |
| [Cl][Hg][Cl] [HgCl₂] | 46 | effect on activity of the alkaline protease K-16 (in words) (alkaline protease K-16 [1]): inhibited |
| [Cl][Ni][Cl] [NiCl₂] | 103 | – |
| [Cl][Pb][Cl] [PbCl₂] | 100 | – |
| [Cl-].[Cl-].[Zn+2] [ZnCl₂] | 106 | – |
